In US12012467B2, “Small molecule DCN1 inhibitors and therapeutic methods using the same” (THE REGENTS OF THE UNIVERSITY OF MICHIGAN, priority 2017, dated 2024):
“Also recorded” adds a separate entry of the source.

Legend:
[1] = system: NRF2; test: Western blotting of NRF2 and NRF2-regulated proteins in THLE2 liver cell line; assay type: cell-based
Procedure: (§1) A key function of cullin neddylation is to control E3 ubiquitin ligase activity of the cullin complex, which in turn regulates protein turnover in cells. DI-591 (Example 58) was evaluated for its effect on neddylation of 5 different cullins in the THLE2 liver cell line with the data shown in FIG. 1. Immortalized THLE2 liver cell line was treated by a dose-range of DCN1 inhibitor DI-591 or a dose-range of MLN4924 for 24 h. The protein levels of neddylated- and un-neddylated-cullin family proteins and several well-known substrates of cullins were examined by western blotting analysis. GAPDH was used as a loading control. […] Immunohistochemical data confirmed the increased NRF2 protein by Example 58 in liver cells.
NRF2 is a transcriptional factor and a master regulator of antioxidant responses, regulating numerous detoxifying and antioxidant genes, such as the phase II detoxification enzymes heme oxygenase (HO1) and NAD(P)H:quinone oxidoreductase-1 (NQ01) (36). DI-591 (Example 58) was compared to dimethyl fumarate (DMF) for their effect on NRF2 and NQ01 protein levels in the THLE2 liver cell line with DI-591DD included as a control with the data shown in FIG. 3. THLE2 liver cell line was treated by DI-591 at 10 μM, DI-591DD at 10 μM or DMF at 10 μM for different time points.
(§2) Immortalized liver THLE2 (ATCC® CRL-2706™) cell lines was purchased from the ATCC (Rockville, MD). The cell line was maintained in BEGM Bronchial Epithelial Cell Growth Medium from Lonza/Clonetics Corporation (CC3170, Walkersville, MD) supplemented with 10% FBS and pen-strep at 37° C. in a humidified incubator with 5% CO2. Esophageal cancer KYSE140 cell line (ACC 348) was purchased from DSMZ (Braunschweig, Germany). The cell line was maintained RPMI1640 supplemented with 10% FBS and pen-strep at 37° C. in a humidified incubator with 5% CO2.
(§3) Treated cells were lysed by RIPA buffer supplemented with protease inhibitor. The expression level of indicated proteins was examined by western blotting analysis. GAPDH was used as a loading control. Antibodies were purchased: Cullin 1 (sc-11384), Cullin2 (sc-10781), Cullin5 (sc-13014) and Cullin7 (sc-134565) from Santa Cruz Biotech. (Santa Cruz, CA); Cullin 4A (PA5-14542), Cullin 4B (PA5-35239), Cullin9 (PA5-20277), DCN2 (DCUN1D2, PA5-31607) and DCN3 (DCUN1D3, PA5-44000) from ThermoFisher Scientific (Wayne, MI); Cullin 3 (2759), NRF2 (12721), HO-1 (70081), NQ01 (3187), Cyclin E (4129), Bim (2819), Keap1 (8047) and UBC12 (4913) from Cell Signaling Technology (Boston, MA); DCN1 (GWB-E3D700) from GenWay Biotech (San Diego, CA). Results are representative of three independent experiments.

[2] = system: Cyclin E, BimEL, CDT1; test: Western blotting of Cul-1 and Cul-4A substrates in THLE2 liver cell line; assay type: cell-based; settings: dose-range, 24 h
Procedure: as §1, §2, §3

[3] = system: neddylation of cullin 1; test: Western blotting of neddylated and un-neddylated cullin 1 in THLE2 liver cell line; assay type: cell-based; settings: DI-591 at 10 μM or MLN4924 at 0.3 μM, 5 minutes to 24 hours
Procedure: (§4) DI-591 (Example 58) was further compared to MLN4924 for their ability to inhibit neddylation of cullin 1 and cullin 3 in the THLE2 liver cell line with the data shown in FIG. 2. THLE2 liver cell line was treated by DI-591 at 10 μM or MLN4924 at 0.3 μM for 5 minutes (5m), 30 minutes (30 m), 2 hours (2h) and 24 hours (24h). […] In comparison, MLN4924 inhibits the neddylation of both cullin 1 and 3.
as §2
(§5) Treated cells were lysed by RIPA buffer supplemented with protease inhibitor. The expression level of indicated proteins was examined by western blotting analysis. GAPDH was used as a loading control. Antibodies were purchased: Cullin 1 (sc-11384), Cullin2 (sc-10781), Cullin5 (sc-13014) and Cullin7 (sc-134565) from Santa Cruz Biotech. […]

[4] = system: neddylation of cullin 3; test: Western blotting of neddylated and un-neddylated cullin 3 in THLE2 liver cell line; assay type: cell-based
Procedure: as §1, §4, §2, §5

[5] = system: mRNA of NRF2, NQ01 and HO-1; test: qRT-PCR of NRF2 and NRF2-regulated genes in THLE2 liver cell line; assay type: cell-based; settings: 10 μM, different time points
From the text: FIG. 4 provides qRT-PCR analysis of mRNA levels of NRF2 and NRF2-regulated genes in the THLE2 liver cell line. […] The relative mRNA levels of NRF2, NQ01 and HO-1 were examined by quantitative real-time RT-PCR assay.

[6] = target: DCN1 (Homo sapiens (Human), UniProt Q96GG9); test: FP protein saturation experiment (Kd of fluorescent probe); settings: fluorescein-labeled probe; read-out: Binding affinity to DCN1, Kd
Procedure: The Fluorescence Polarization (FP) competitive binding assays were performed to accurately determine the binding affinities of our DCN1 inhibitors. A novel FAM labeled fluorescent probe compound (46) was designed and synthesized based on one of our potent small molecule DCN1 inhibitors. […] Serial dilutions of proteins were mixed with 46 to a final volume of 200 μl in the assay buffer (100 mM phosphate buffer, pH=6.5, with 0.02% Tween-20 and 2% DMSO). Final probe concentration was 5 nM for both assays. Plates were incubated at room temperature for 30 minutes with gentle shaking to assure equilibrium. FP values in millipolarization units (mP) were measured using the Infinite M-1000 plate reader (Tecan U.S., Research Triangle Park, NC) in Microfluor 1 96-well, black, round-bottom plates (Thermo Scientific, Waltham, MA) at an excitation wavelength of 485 nm and an emission wavelength of 530 nm.
Human DCN1 (residues 58-259) were cloned into a pDEST17 plasmid containing an N-terminal His6 tag. DCN2 (residues 62-259), DCN3 (residues 86-304), DCN4 (residues 102-292) and DCN5 (residues 47-237) were cloned into an N-terminal His6-TEV expression vector. Pure proteins were derived from the same expression and purification protocols. […]

DCN1, sequence (Q96GG9 58-259): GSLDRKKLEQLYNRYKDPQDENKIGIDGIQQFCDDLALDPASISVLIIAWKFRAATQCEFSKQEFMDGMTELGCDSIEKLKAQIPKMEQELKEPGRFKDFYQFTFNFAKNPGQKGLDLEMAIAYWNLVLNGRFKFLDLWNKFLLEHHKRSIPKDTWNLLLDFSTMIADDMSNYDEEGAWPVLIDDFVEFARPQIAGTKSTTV

Row | SMILES | accumulation of NRF2 and NQ01 protein ([1]; THLE2 liver cell line, 10 μM, different time points) | abundance of NRF2 protein (cullin 3 substrate) ([1]; THLE2 liver cell line, dose-range, 24 h, western blotting) | NRF2 protein, immunohistochemical data ([1]; liver cells) | protein levels of Cyclin E, BimEL and CDT1 (substrates of Cul-1 and Cul-4A) [2] | neddylation of cullin 1 [3] | neddylation of cullin 3 ([4]; THLE2, DI-591 at 10 μM or MLN4924 at 0.3 μM, 5 minutes to 24 hours) | neddylation of cullin 3 ([4]; THLE2 liver cell line, dose-range, 24 h) | mRNA level of NRF2 [5] | mRNA levels of NQ01 and HO1 (NRF2-regulated genes) [5] | Kd [6] [nM]
1 | CCC(=O)N[C@@H](Cc1nc2ccc(C(C)C)cc2s1)C(=O)N[C@H](CNC(=O)CCN1CCOCC1)C1CCCCC1 [Example 58, (S)—N—((S)-1-cyclohexyl-2-(3-morpholinopropanamido)ethyl)-3-(6-isopropylbenzo[d]thiazol-2-yl)-2-propionamidopropanamide] | stimulate the accumulation | induces upregulation; also recorded: selectively increased | increased | no or minimal effect | little effect | rapidly inhibits | selectively and dose-dependently inhibits | no effect | upregulates; also recorded: clearly increases | 
2 | CCC(=O)N[C@@H](Cc1nc2ccc(C(C)C)cc2s1)C(=O)N[C@H](CNC(=O)C1CCN(CCOCCOCCOCCNC(=O)c2ccc3c(c2)C(=O)OC32c3ccc(O)cc3Oc3cc(O)ccc32)CC1)C1CCCCC1 [Example 127, N—((S)-2-cyclohexyl-2-((S)-3-(6-isopropylbenzo[d]thiazol-2-yl)-2-propionamidopropanamido)ethyl)-1-(1-(3′,6′-dihydroxy-3-oxo-3H-spiro [isobenzofuran-1,9′-xanthen]-5-yl)-1-oxo-5,8,11-trioxa-2-azatridecan-13-yl)piperidine-4-carboxamide] |  |  |  |  |  |  |  |  |  | 21.9
